Publication PMC11790914, “Chemogenomics for steroid hormone receptors (NR3)” (Communications Chemistry, 2025)
“And” between values parts separate entries of the source, which are not always exact repeats. Identical values can stand only once. Like-named read-outs stand apart in the source and are kept apart here.

Experiments:
[1] = target: T1, BRD4 (Homo sapiens, UniProt O60885); assay: Liability panel screening by DSF: BRD4; assay type: binding; conditions: read-out: Mean ΔTM BRD4
T1 construct: This panel comprised ten highly ligandable kinases and bromodomains; made in house
Method: (§1) Reference ligands are listed in the methods section.
(§2) In-house produced recombinantly expressed proteins[62] of the liability panel targets were diluted in a buffer containing 10 mM HEPES (pH 7.5) and 500 mM NaCl to a concentration of 2 µM. SYPRO Orange (Invitrogen, Carlsbad, California, USA; #S6650) as a fluorescence probe was added at a 1:1000 dilution to the proteins. […] Temperature-dependent unfolding profiles were measured on a QuantStudio™ 5 real-time PCR machine (Thermo Fisher Scientific, Waltham, Massachusetts, USA; #A28140). […] The temperature was increased 3 °C per minute to a maximum temperature of 85 °C. Experiments were run as technical duplicates. […] Data were analyzed with the internal Thermal Shift Software (version 1.4, Thermo Fisher Scientific) using the Boltzmann equitation to determine the inflection point of the transition curve. Differences in melting temperature are given as ∆Tm in K. […]
(§3) scanning fluorimetry (DSF).
(§4) a concentration of 20 µM.

[2] = target: T2, MAPK1 (Homo sapiens, UniProt P28482); assay: Liability panel screening by DSF: MAPK1; assay type: binding; conditions: read-out: Mean ΔTM MAPK1
T2 construct: made in house
T2 sequence (P28482 whole entry, species assumed): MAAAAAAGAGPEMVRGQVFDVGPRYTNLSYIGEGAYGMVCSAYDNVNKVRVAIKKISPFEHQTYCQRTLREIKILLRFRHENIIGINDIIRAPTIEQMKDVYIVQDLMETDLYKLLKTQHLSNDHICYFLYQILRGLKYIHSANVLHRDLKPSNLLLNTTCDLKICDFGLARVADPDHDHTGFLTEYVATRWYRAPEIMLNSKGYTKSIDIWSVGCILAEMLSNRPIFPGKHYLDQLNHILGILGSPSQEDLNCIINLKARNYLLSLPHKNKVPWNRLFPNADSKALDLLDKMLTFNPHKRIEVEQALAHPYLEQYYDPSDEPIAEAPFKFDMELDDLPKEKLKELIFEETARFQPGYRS
Method: as §1, §2, §3, §4

[3] = test system: ATF6 activity in Hela ATF6 reporter cells; assay: Endoplasmic reticulum stress assay (ATF6 Renilla luciferase reporter, tunicamycin); assay type: cell-based
Method: After 24 h, cells were incubated with the test compounds solubilized with 0.1% DMSO in the same medium without puromycin. After 4 h incubation, tunicamycin (100 ng/mL) was added. After another 18 h incubation, cells were assayed for renilla luminescence using DualGlo reagent (Promega) on a Tecan SPARK Cyto (Tecan). Test samples were normalized to the 0.1% DMSO control. Each sample was repeated in five biologically independent experiments.

[4] = test system: NF-κB activity in HEK293 NF-κB reporter cells; assay: NF-kB activity assay (GFP reporter, ionomycin/PMA); assay type: cell-based; conditions: for Mean NFκB response: n=3
Method: Fig. 6 Application of the NR3 CG set.
After 24 h, cells were incubated with the test compounds solubilized with 0.1% DMSO in the same medium without puromycin. After 4 h incubation, ionomycin (100 ng/mL) and phorbol-12-myristat-13-acetate (PMA, 10 ng/mL) was added, and the cells were imaged for confluence and GFP expression every 90 min. over 24 h using a Tecan SPARK Cyto (Tecan). The number of GFP expressing cells was normalized to confluence in each sample. Each sample was repeated in three biologically independent experiments.

[5] = target: T3, GSK3B (Homo sapiens, UniProt P49841); assay: Liability panel screening by DSF: GSK3B; assay type: binding; conditions: read-out: Mean ΔTM GSK3B
T3 construct: made in house
T3 sequence (P49841 whole entry, species assumed): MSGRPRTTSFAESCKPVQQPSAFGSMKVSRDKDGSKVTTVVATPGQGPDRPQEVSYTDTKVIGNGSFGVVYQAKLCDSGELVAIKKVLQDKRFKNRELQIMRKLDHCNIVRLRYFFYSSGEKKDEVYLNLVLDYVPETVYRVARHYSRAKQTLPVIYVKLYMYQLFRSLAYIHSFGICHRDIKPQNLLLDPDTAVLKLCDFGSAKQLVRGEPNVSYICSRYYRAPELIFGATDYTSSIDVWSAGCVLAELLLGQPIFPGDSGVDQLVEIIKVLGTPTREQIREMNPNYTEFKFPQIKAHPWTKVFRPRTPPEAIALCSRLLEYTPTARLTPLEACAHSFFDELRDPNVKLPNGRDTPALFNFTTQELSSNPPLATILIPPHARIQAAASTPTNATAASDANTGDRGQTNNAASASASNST

[6] = test system: HEK293T cells; assay: Cytotoxicity: necrosis induction (red fluorescent dye for permeable plasma membranes); assay type: cell-based; conditions: 1 µM, 24 h, necrotic cell count normalized to 0.1% DMSO, single replicates;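 also: compounds applied in DMEM high glucose with 0.1% FCS and 0.1% DMSO, necrotic HEK293T cells counted by red staining of cells whose plasma membranes had become permeable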
[7] = target: T4, TRIM24 (Homo sapiens, UniProt O15164); assay: Liability panel screening by DSF: TRIM24; assay type: binding; conditions: read-out: Mean ΔTM TRIM24
T4 construct: This panel comprised ten highly ligandable kinases and bromodomains; made in house
T4 sequence (O15164 899-1004 limits assumed): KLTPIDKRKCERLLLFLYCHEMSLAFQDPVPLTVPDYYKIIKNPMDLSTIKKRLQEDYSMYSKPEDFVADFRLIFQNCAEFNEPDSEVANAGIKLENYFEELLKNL
Method: as §1, §2, §3, §4

[8] = target: T5, ABL1 (Homo sapiens, UniProt P00519); assay: Liability panel screening by DSF: ABL1; assay type: binding; conditions: read-out: Mean ΔTM ABL1
T5 construct: made in house
T5 sequence (P00519 whole entry, species assumed): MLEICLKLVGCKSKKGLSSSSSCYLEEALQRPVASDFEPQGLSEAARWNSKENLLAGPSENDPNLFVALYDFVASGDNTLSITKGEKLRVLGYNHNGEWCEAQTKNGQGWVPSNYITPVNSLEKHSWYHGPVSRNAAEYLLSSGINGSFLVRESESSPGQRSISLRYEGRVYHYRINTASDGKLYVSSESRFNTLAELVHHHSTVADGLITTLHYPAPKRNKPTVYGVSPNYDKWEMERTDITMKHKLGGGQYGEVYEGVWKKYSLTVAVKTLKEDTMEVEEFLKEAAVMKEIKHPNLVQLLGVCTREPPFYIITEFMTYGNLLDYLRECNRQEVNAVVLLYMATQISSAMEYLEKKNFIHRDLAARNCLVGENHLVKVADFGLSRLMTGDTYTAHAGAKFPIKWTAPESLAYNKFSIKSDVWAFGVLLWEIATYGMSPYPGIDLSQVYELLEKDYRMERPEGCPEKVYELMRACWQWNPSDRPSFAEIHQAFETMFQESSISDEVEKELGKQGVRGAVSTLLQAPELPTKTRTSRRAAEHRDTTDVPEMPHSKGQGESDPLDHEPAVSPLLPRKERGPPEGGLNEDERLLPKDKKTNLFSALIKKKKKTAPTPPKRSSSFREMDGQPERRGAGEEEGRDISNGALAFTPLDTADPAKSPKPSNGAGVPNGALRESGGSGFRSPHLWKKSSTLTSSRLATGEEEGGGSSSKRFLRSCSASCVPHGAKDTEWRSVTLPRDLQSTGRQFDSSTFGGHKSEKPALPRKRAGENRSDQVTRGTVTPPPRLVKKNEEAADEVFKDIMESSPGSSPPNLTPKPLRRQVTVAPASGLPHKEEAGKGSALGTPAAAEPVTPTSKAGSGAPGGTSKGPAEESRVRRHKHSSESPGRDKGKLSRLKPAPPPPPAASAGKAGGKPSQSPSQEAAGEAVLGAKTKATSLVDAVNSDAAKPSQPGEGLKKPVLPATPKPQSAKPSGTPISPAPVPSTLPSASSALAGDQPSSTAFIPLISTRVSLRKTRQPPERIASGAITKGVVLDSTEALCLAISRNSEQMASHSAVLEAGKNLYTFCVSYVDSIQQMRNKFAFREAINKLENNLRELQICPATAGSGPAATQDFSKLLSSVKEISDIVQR
Method: as §1, §2, §3, §4

[9] = target: T6, FGFR3 (Homo sapiens, UniProt P22607); assay: Liability panel screening by DSF: FGFR3; assay type: binding; conditions: read-out: Mean ΔTM FGFR3
T6 construct: made in house
T6 sequence (P22607 23-806, species assumed): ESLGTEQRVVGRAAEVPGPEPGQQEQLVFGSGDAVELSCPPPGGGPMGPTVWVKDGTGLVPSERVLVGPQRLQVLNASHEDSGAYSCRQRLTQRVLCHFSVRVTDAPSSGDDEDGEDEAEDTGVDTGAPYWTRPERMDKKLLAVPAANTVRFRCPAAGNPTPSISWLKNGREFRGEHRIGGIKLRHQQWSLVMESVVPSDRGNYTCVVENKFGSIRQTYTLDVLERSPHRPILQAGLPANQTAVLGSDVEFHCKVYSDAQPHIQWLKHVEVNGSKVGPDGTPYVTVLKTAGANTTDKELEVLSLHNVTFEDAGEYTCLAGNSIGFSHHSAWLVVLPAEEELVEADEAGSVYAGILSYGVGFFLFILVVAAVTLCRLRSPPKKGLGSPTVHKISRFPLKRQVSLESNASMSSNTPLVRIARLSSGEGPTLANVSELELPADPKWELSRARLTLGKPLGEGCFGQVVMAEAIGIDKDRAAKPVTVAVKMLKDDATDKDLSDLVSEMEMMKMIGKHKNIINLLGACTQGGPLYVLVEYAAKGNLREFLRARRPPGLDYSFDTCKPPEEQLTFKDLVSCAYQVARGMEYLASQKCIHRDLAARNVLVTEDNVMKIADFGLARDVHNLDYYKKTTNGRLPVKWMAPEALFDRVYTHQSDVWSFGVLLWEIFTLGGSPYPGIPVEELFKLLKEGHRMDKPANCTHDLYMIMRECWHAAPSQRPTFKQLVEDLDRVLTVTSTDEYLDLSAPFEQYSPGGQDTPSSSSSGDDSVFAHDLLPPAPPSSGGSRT
Method: as §1, §2, §3, §4

[10] = test system: HEK293T cells; assay: Cytotoxicity: growth-rate (change in confluence over 24 h); conditions: 1 µM, normalized to 0.1% DMSO control, single replicates (n=1...)
[11] = test system: HEK293T cells; assay: Cytotoxicity: apoptosis induction (caspase-3/7 DEVD fluorogenic DNA dye); conditions: 1 µM; HEK293T, 24 h; apoptotic cell count normalized to 0.1% DMSO; single replicates
[12] = target: T7, BRPF1 (Homo sapiens, UniProt P55201); assay: Liability panel screening by DSF: BRPF1; assay type: binding; conditions: read-out: Mean ΔTM BRPF1
T7 construct: This panel comprised ten highly ligandable kinases and bromodomains; made in house
T7 sequence (P55201 628-732 limits assumed): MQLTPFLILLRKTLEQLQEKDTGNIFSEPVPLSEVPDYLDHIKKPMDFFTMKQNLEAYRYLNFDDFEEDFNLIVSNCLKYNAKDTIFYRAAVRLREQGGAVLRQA
Method: as §1, §2, §3, §4

[13] = target: T8, CSNK1D (Homo sapiens, UniProt P48730); assay: Liability panel screening by DSF: CSNK1D; assay type: binding; conditions: read-out: Mean ΔTM CSNK1D
T8 construct: made in house
T8 sequence (P48730 whole entry, species assumed): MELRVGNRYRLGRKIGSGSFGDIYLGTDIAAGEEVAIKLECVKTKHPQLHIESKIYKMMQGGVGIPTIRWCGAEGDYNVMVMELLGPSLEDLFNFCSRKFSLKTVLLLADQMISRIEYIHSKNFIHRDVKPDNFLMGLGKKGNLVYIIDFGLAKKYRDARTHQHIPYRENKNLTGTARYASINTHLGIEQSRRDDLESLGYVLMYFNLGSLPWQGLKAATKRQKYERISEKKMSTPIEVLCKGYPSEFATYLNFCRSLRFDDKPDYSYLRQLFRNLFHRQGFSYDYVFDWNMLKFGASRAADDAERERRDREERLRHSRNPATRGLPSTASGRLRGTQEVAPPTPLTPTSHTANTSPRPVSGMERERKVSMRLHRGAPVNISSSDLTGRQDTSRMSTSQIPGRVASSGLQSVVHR
Method: as §1, §2, §3, §4

[14] = target: T9, AURKA (Homo sapiens, UniProt O14965); assay: Liability panel screening by DSF: AURKA; assay type: binding; conditions: read-out: Mean ΔTM AURKA
T9 construct: made in house
T9 sequence (O14965 1-403): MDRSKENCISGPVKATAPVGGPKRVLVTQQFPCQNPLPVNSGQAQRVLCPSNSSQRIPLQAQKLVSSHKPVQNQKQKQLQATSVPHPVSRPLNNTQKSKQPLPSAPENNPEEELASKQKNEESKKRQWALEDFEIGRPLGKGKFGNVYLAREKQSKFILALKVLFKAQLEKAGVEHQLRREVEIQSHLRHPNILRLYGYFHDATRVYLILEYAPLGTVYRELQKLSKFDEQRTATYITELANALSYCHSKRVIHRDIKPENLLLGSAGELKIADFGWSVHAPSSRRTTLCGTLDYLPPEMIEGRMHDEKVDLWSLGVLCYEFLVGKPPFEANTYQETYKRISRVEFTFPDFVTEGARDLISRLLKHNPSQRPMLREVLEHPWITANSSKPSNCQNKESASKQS
Method: as §1, §2, §3, §4

[15] = test system: HEK293T cells; assay: Cytotoxicity: metabolic activity (WST-8 / CCK-8 assay); conditions: 1 µM; HEK293T, 24 h; WST-8; normalized to 0.1% DMSO; single replicates
[16] = target: T10, CDK2 (Homo sapiens, UniProt P24941); assay: Liability panel screening by DSF: CDK2; assay type: binding; conditions: read-out: Mean ΔTM CDK2
T10 construct: made in house
Method: as §1, §2, §3, §4

| Compound | Mean NFκB response ([4]; 1 µM, 1,5 h) | Mean NFκB response ([4]; 1 µM, 4,5 h) | Mean NFκB response ([4]; 1 µM, 7,5 h) | Mean NFκB response ([4]; 1 µM, 10,5 h) | Mean NFκB response ([4]; 1 µM, 13,5 h) | Mean NFκB response ([4]; 1 µM, 16,6 h) | Mean NFκB response ([4]; 1 µM, 19,5 h) | Mean NFκB response ([4]; 1 µM, 22,5 h) | Mean NFκB response ([4]; 1 µM, 3 h) | Mean NFκB response ([4]; 1 µM, 6 h) | Mean NFκB response ([4]; 1 µM, 9 h) | Mean NFκB response ([4]; 1 µM, 12 h) | Mean NFκB response ([4]; 1 µM, 15 h) | Mean NFκB response ([4]; 1 µM, 18 h) | Mean NFκB response ([4]; 1 µM, 21 h) | Mean NFκB response ([4]; 1 µM, 24 h) | Necrosis induction [NI] [6] | Apoptosis induction [AI] [11] | Metabolic activity [MA] [15] | further results |
| --- | --- | --- | --- | --- | --- | --- | --- | --- | --- | --- | --- | --- | --- | --- | --- | --- | --- | --- | --- | --- |
| O=S(=O)(Cc1ccccc1)Nc1ccc(-c2ccc3c(cnn3-c3ccc(F)cc3)c2)c(C(F)(F)F)c1 [GSK9027] | 2917.80 GFP+-cells/confluence ∙ 1000 | 3437.70 GFP+-cells/confluence ∙ 1000 | 4957.90 GFP+-cells/confluence ∙ 1000 | 8098.89 GFP+-cells/confluence ∙ 1000 | 11113.03 GFP+-cells/confluence ∙ 1000 | 13521.21 GFP+-cells/confluence ∙ 1000 | 14898.72 GFP+-cells/confluence ∙ 1000 | 15985.14 GFP+-cells/confluence ∙ 1000 | 2869.62 GFP+-cells/confluence ∙ 1000 | 4105.89 GFP+-cells/confluence ∙ 1000 | 6294.49 GFP+-cells/confluence ∙ 1000 | 9593.56 GFP+-cells/confluence ∙ 1000 | 12593.25 GFP+-cells/confluence ∙ 1000 | 14186.97 GFP+-cells/confluence ∙ 1000 | 15313.70 GFP+-cells/confluence ∙ 1000 | 16630.14 GFP+-cells/confluence ∙ 1000 | 0.93 and 0.78 and 0.76 and 1.05 | 0.65 and 1.04 and 0.83 and 0.94 and 0.36 and 0.86 | 1.03 and 1.01 (3×) and 0.96 and 1.00 and 1.18 and 1.15 | ΔTm at 20 µM [1]: 1.58 °C; ΔTm at 20 µM [2]: -2.07 °C; ATF6 activity (tunicamycin-induced endoplasmic reticulum stress) ([3]; Hela ATF6 reporter cells, tunicamycin 100 ng/mL, 18 h, compounds at recommended concentrations, n = 5): Consistently weaker ATF6 activity; activity at 1 µM ([3]; Homo sapiens, HeLa, 1 µM, single replicates n=1 to n=5, read-out: ER stress [rel. ATF6 activity]): 76%; NF-κB activity (inflammatory response to ionomycin/PMA) ([4]; HEK293 NF-κB reporter cells, compounds at recommended concentrations, imaged over 24 h, n = 3): consistently delayed and strongly diminished NF-κB activity; ΔTm at 20 µM [5]: 1.24 °C; ΔTm at 20 µM [7]: 1.36 °C; ΔTm at 20 µM [8]: 1.8 °C; ΔTm at 20 µM [9]: -0.29 °C; Growth rate [GR] [10]: 0.54 and 0.80 and 0.72 and 0.98 and 0.70 and 0.66 and 0.84 and 1.89 and 2.05 and 4.10; ΔTm at 20 µM [12]: 1.21 °C; ΔTm at 20 µM [13]: -1.92 °C; ΔTm at 20 µM [14]: 1.2 °C; ΔTm at 20 µM [16]: 0.1 °C |
| Cc1c(N2C(=O)C3C(O)CCN3C2=O)ccc(C#N)c1Cl (centres unmarked) [BMS564929] | 2292.65 GFP+-cells/confluence ∙ 1000 | 2993.37 GFP+-cells/confluence ∙ 1000 | 6319.46 GFP+-cells/confluence ∙ 1000 | 12250.00 GFP+-cells/confluence ∙ 1000 | 16870.00 GFP+-cells/confluence ∙ 1000 | 20913.33 GFP+-cells/confluence ∙ 1000 | 23700.00 GFP+-cells/confluence ∙ 1000 | 25766.67 GFP+-cells/confluence ∙ 1000 | 2425.99 GFP+-cells/confluence ∙ 1000 | 4160.27 GFP+-cells/confluence ∙ 1000 | 9390.00 GFP+-cells/confluence ∙ 1000 | 14670.00 GFP+-cells/confluence ∙ 1000 | 19226.67 GFP+-cells/confluence ∙ 1000 | 22263.33 GFP+-cells/confluence ∙ 1000 | 24826.67 GFP+-cells/confluence ∙ 1000 | 26713.33 GFP+-cells/confluence ∙ 1000 | 0.79 and 0.76 and 0.66 and 0.82 | 0.43 and 0.64 and 0.69 and 0.74 and 0.68 and 1.04 | 1.09 and 1.08 and 0.94 and 1.07 (2×) and 0.99 and 0.92 and 1.10 | ΔTm at 20 µM ([1]; DSF, 20 µM, n=2): -2.89 °C; ΔTm at 20 µM ([2]; DSF, 20 µM, n=2): 0.12 °C; ΔTm at 20 µM ([5]; DSF, 20 µM, n=2): -0.71 °C; ΔTm at 20 µM ([7]; DSF, 20 µM, n=2): 0.44 °C; ΔTm at 20 µM ([8]; DSF, 20 µM, n=2): 0.02 °C; ΔTm at 20 µM ([9]; DSF, 20 µM, n=2): -0.04 °C; ΔTm at 20 µM ([12]; DSF, 20 µM, n=2): 0.06 °C; ΔTm at 20 µM ([13]; DSF, 20 µM, n=2): -0.38 °C; ΔTm at 20 µM ([14]; DSF, 20 µM, n=2): -2.25 °C; ΔTm at 20 µM ([16]; DSF, 20 µM, n=2): 0.04 °C |
